What was measured:
Assay type in all cases: cell-based, human
[1] = test system: PC-3 cells; test: PC3 standard IncuCyte real-time killing assay; conditions: IncuCyte platform
Protocol: FIG. 16 is a graph illustrating a PC3 standard IncuCyte Assay.
Tumor killing was evaluated in real-time using the IncuCyte platform. […] Caspase-3/7 green dye (Sartorious, Ann Arbor, MI, USA) was added to pick up dying cells that have not yet lost NuclightRed fluorescence. Noted treatments were then added at a 30 nM concentration, and the plate was placed in an IncuCyte ZOOM® platform housed inside a cell incubator at 37° C./5% C02. Images from three technical replicates were taken every 15 min for 48 h using a 4× objective lens and then analyzed using IncuCyte™ Basic Software v2018A (Sartorious). Graphed readouts represent percentage live OVCAR8 targets (NuclightRed+Caspase-3/7−), normalized to live targets alone at the starting (0 h) time point.

[2] = test system: lung cancer cell lines; test: NK cell activation against lung cancer cell lines vs K562 / Raji
Protocol: ADCC was measured in a flow cytometry assay by evaluating degranulation via CD107a (lysosomal-associated membrane protein LAMP-1) and intracellular IFNγ production. Upon thawing, normal donor and patient-derived PBMCs or ascites cells were rested overnight (37° C., 5% CO2) in RPMI 1640 media supplemented with 10% fetal calf serum (RPMI-10). The next morning, they were suspended with tumor-target cells or media after washing twice with RPMI-10. Cells were then incubated with TriKEs or controls for 10 min at 37° C. Fluorescein isothiocyate (FITC)-conjugated anti-human CD107a monoclonal antibody (BD Biosciences, San Jose, CA, USA) was then added. Following an hour 37° C. incubation, GolgiStop (1:1500, BD Biosciences) and GolgiPlug (1:1000, BD Biosciences) were added for 3 h. After washing with phosphate buffered saline, the cells were stained with PE/Cy 7-conjugated anti-CD56 mAb, APC/Cy 7-conjugated anti-CD16 mAb, and PE-CF594-conjugated anti-CD3 mAb (BioLegend, San Diego, CA, USA). Cells were incubated for 15 min at 4° C., washed, and fixed with 2% paraformaldehyde. Cells were then permeabilized using an intracellular perm buffer (BioLegend) to evaluate production of IFNγ through detection via aBV650 conjugated anti-human IFNγ antibody (BioLegend). Samples were washed and evaluated in an LSRII flow cytometer (BD Biosciences, San Jose, CA, USA). […]

[3] = test system: NK cells (CD45+CD56+CD3−) in PBMCs, with or without OVCAR8; test: Mass cytometry (CyTOF) of TriKE activated NK cells
Protocol: FIG. 31 illustrates high dimensional analysis of cam1615B7-H3 activated NK cells. Concatenated analysis of three donors PBMCs incubated alone, with 30 nM cam1615B7-H3 TriKE, with OVCAR8 tumor (2:1 E:T), or with 30 nM cam1615B7-H3 TriKE and OVCAR8 tumor. Data was visualized in viSNE (Cytobank) and gated on CD45+CD56+CD3-cells.
For mass cytometry (CyTOF) studies, PBMCs were incubated alone or with OVCAR8s at a 2:1 ratio+/−cam1615B7-H3 (30 nM) for 24 h. After harvesting samples, cells were counted, and viability was measured using trypan blue exclusion. Two hundred thousand cells from each donor were aliquoted into 5-mL polystyrene U-bottom tubes for barcoding and CyTOF staining. Cells were stained with Cisplatin (Fluidigm Product #201064, San Francisco, CA, USA), followed by barcoding using the Cell-ID 20-Plex Pd Barcoding Kit (Fluidigm Product #201060). After barcoding, all cells were combined into a single 5-mL polystyrene U-bottom tube and incubated in the surface marker antibody cocktail for 30 min at 4° C.
Following surface staining, cells were then fixed using 2% PFA. For intracellular staining, cells were permeabilized by incubation with Triton X 0.1% for 5 min at room temperature, followed by incubation with intracellular antibody cocktail for 30 min at 4° C. Stained cells were then incubated overnight with Cell-ID Intercalator (Fluidigm Product #201192A). The following morning cells were washed and run on the CyTOF 2 instrument. Wash steps were completed using either Maxpar PBS (Fluidigm Product #201058), Maxpar Cell Staining Buffer (Fluidigm Product #201068), or Millipure Water at 1600 RPM for 4 min. For custom tagged antibodies: Conjugation of heavy metals to a specific ScFv is conducted using the Maxpar antibody labeling kit (Fluidigm). The protocol involves partial antibody reduction using 0.5 M TCEP: Pierce Bond-Breaker TCEP Solution (Thermo Scientific Product #77720, Waltham, MA, USA), as well as comprehensive buffer exchange using centrifugal filter units of both 3 kDa and 50 kDa size (Millipore Product #UFC500396, UFC505096, Burlington, MA, USA). After conjugation of the antibody, yield is measured, and the final reagent is stored in antibody stabilizer (Boca Scientific Product #131 000, Westwood, MA, USA). The reagent is then titrated and verified against known flow cytometry antibodies. Data from the three donors was concatenated. FCS file concatenation was completed with a combination of Cytobank and Flowjo. All Visne analyses were carried out in Cytobank.
As illustrated in FIG. 31 high dimensional analysis of cam1615B7-H3 TriKE activated cells was performed. To broadly evaluate the phenotypic and functional effects of TriKE activation on NK cells, a custom, 42 parameter, CyTOF (mass cytometry) NK cell targeted panel was used. PBMCs were left untreated, incubated with cam1615B7-H3 TriKE for 24 h, incubated with tumor (OVCAR8s) for 24 h, or incubated with tumor and cam1615B7-H3 TriKE for 24 h. Cells were then stained, fixed, and run on a CyTOF2. Samples (three biologic replicates per condition) were concatenated, and data was visualized with viSNE, which uses all expression information to display localization of individual cells in a 2D plot in order to explore the multidimensional data (FIG. 31). The data indicated no changes in distributions of CD56^brights versus CD56^dims. Activation markers CD25 and CD69 were both induced with TriKE treatment, as was the chemokine receptor CXCR3. Granzyme B, involved in cytolytic activity of NK cells, was primed on effectors+TriKE, but in the presence of tumor targets (effectors+tumor+TriKE) these Granzyme B high cells disappeared, likely as a cause of ADCC driven specific degranulation. […] This also seemed to be the case with NKG2D, but the natural cytotoxicity receptors (NCR: NKp30, NKp44, and NKp46) were less affected.

[4] = effectors exposed to tumor in the presence of TriKE

Substance	real-time tumor killing of PC-3 cells [1]	NK cell degranulation and IFNγ production against lung cancer cells vs K562 targets alone [2]	B7-H3 specificity of activation against lung cancer cell lines ([2]; vs B7-H3− Raji cells)	distributions of CD56brights versus CD56dims ([3]; 30 nM, 24 h)	CD25 expression ([3]; 30 nM, 24 h, TriKE treatment)	CD69 expression ([3]; 30 nM, 24 h, TriKE treatment)	CXCR3 expression ([3]; 30 nM, 24 h, TriKE treatment)	TIGIT [3, 4]	activating KIR (KIR2DS1 and KIR2DS4) expression [3, 4]	inhibitory KIR (KIR2DL1, KIR2DL3 and KIR3DL1) expression [3, 4]	natural cytotoxicity receptors (NKp30, NKp44, NKp46) [3, 4]	Granzyme B ([3]; effectors+TriKE)	Granzyme B high cells ([3]; effectors+tumor+TriKE)
B7-H3 TriKE: camelid nanobodies targeting CD16 and B7-H3 joined by IL-15 and two linkers; sequence table equates the name with cam1615B7-H3	enhanced efficacy	–	–	–	–	–	–	–	–	–	–	–	–
cam1615B7-H3: second-generation TriKE: humanized camelid anti-CD16 VHH, human wild-type IL-15, anti-B7-H3 mAb 376.96 scFv; SEQ ID NO:1	–	higher than that seen when NK cells are incubated with K562 targets alone	specific to B7-H3 expression	no changes	induced	induced	induced	did not seem as affected	reduced in expression	reduced in expression	less affected	primed	disappeared

Reference: patent US20250145715A1, “B7-H3 TARGETING FUSION PROTEINS AND METHODS OF USE THEREOF” (GT Biopharma, Inc., priority 2021, published 2025)
